Laboratory results reported in a melting point compilation (Tetko et al.; mined from patent text by program, amines drawn as free bases though some values may be those of a salt).

Row | melting point | SMILES
1 | 220 to 222 °C | O=C1CC(c2cccc(-n3ccnc3)c2)=Nc2cc(OCCO)c(C#Cc3ccc(F)cc3)cc2N1
2 | 160 to 162 °C | COc1ccc(C(=O)C2Cc3cc(OC)ccc3C2=O)cc1 (configuration not stated)
3 | 107 to 109 °C | S=c1nc2ccccn2c(=S)n1-c1ccccn1
4 | 182 to 184 °C | CN(C)Cc1ccc(NC(=O)C2=Cc3cc(-c4ccccc4)ccc3CC2)cc1
5 | 244 °C | O=C1NC(=NCc2ccccc2)C(c2ccc(Br)cc2)N1c1ccc2[nH]cnc2c1 (configuration not stated)
6 | 85 to 125 °C | CC1(C)CC(OC(=O)CCc2cc(-n3nc4ccc(S(=O)(=O)c5ccccc5)cc4n3)c(O)c(C(C)(C)C)c2)CC(C)(C)N1
7 | 179 to 180 °C | CN(C)C=C1CN=C(c2ccccc2)c2cc(Cl)ccc2C1=O
8 | 167 to 169 °C | O=C1C(=O)N(C(c2ccccc2)c2ccccc2)c2cc(F)ccc21
9 | 110 °C | Cc1ccccc1-c1nc(-c2ccccc2C)nc(-c2ccccc2C)n1
10 | 183 °C | CCS(=O)(=O)Nc1cc(-n2nc(C(F)F)n(C)c2=S)c(F)cc1C(N)=S
11 | 187 to 188 °C | COc1ccc2cc(N(C(C)=O)c3ccc(O)cc3)ccc2c1
12 | 165 to 166 °C | COc1ccc(S(=O)(=O)N2CCc3cccc(-c4ccc(CN(C)C)cc4)c32)cc1
13 | 86 °C | COc1ccc(-c2nc(Sc3ncccn3)[nH]c2-c2ccc(OC)cc2)cc1
14 | 195 to 196 °C | COc1ccc(C(=O)Nc2ccc(C)c(Cl)c2)cc1NC(=S)Nc1cc(Cl)cc(Cl)c1
15 | 185 to 188 °C | N#CC1=Nc2ccc(Cl)cc2Oc2ccccc21
16 | 121 to 122 °C | N#CCc1c(Cl)nc(-c2ccccc2)n1Cc1ccccc1
17 | 189 °C | CN(c1cccc2cc(-c3nccs3)[nH]c12)S(=O)(=O)c1ccsc1COCC(=O)O
18 | 203 to 205 °C | O=C1c2ccccc2C(O)(c2ccc(F)cc2)C2=NC3CCCCC3N12 (configuration not stated)
19 | 178 to 180 °C | CCCCOCCOc1ccc(-c2ccc3c(c2)C=C(C(=O)Nc2ccc(S(=O)Cc4nncn4CCCC)cc2)CCN3CC(C)C)cc1 (configuration not stated)
20 | > 300 °C | CN(C)c1ccc2nc(-c3csc4ccccc34)[nH]c(=O)c2c1
21 | 171 to 173 °C | O=C(NNC(=O)c1occc1-c1cccc(OCc2ccccc2)c1)c1ccc(O)c([N+](=O)[O-])c1
22 | 117 to 119 °C | O=C(C=Cc1cccnc1)c1ccccc1OCc1ccccc1
23 | 92 to 101 °C | COc1c(Nc2ncc3ccc(-c4ccccc4N(C)S(C)(=O)=O)n3n2)cccc1C1CCN(C)CC1
24 | 194 to 196 °C | COc1cn(-c2ccc(I)cc2F)nc(-c2ccnn2-c2ccccc2)c1=O

Row | melting point | SMILES
25 | 173 to 175 °C | COC[C@@H]1Cc2ccccc2N1S(=O)(=O)c1ccc2c(c1)C(=O)C1=NCC(C)(C)CN12
26 | 189 to 191 °C | COc1cc(C(=O)N(C(C)C)C2CCCCC2)ccc1Cn1cnc2ncccc21
27 | 132 to 136 °C | CCOC(=O)c1csc(NCc2ccccc2)n1
28 | > 260 °C | Clc1ccc2nc(-c3ccccc3)cc(CCC3CCCNC3)c2c1 (configuration not stated)
29 | 235 to 238 °C | O=c1[nH]c2cccnc2n1-c1ccccn1
30 | 231 to 233 °C | COc1ccc(CNC(=NC#N)Nc2ccc(C3=NNC(=O)CC3C)cc2)cc1 (configuration not stated)
31 | 166 to 168 °C | Cc1ccccc1NC(=O)CN1CC2CCC(C1)N2S(=O)(=O)c1cccc(C#N)c1
32 | 270 to 271 °C | CNC(=O)c1cccc(F)c1Nc1nc(Nc2ccc3c(c2)NC(=O)C(N2CCOCC2)CC3)ncc1Cl (configuration not stated)
33 | 132 to 134 °C | COc1nc(C)cnc1N(C(=O)OCC(C)C)S(=O)(=O)c1cccnc1-c1ccc([Si](C)(C)C)cc1
34 | 142 to 145 °C | COc1ccc(-c2ncn(CCC(C)(C)NCC(O)c3ccc(O)c(CO)c3)n2)cc1 (configuration not stated)
35 | 77 to 95 °C | CC(C)(CC(=O)O)CC(=O)N[C@H](Cc1ccc(-c2ccccc2)cc1)C(=O)NCCCCNc1ncccn1
36 | 103 to 104 °C | COC(=O)c1cc(C(=O)OC)cc(P(c2ccccc2)c2ccccc2)c1
37 | 112 to 113 °C | O=C1C(=Cc2ccccc2)COc2ccccc21
38 | 222 to 228 °C | COc1ccc(OC)c2c(=O)c3c(Cl)ccc([N+](=O)[O-])c3sc12
39 | 215 to 216 °C | COc1ccccc1C1(c2ccc(N(C)C)cc2)OC(=O)c2cc(N(C)C)ccc21 (configuration not stated)
40 | 176 to 179 °C | CN(C)CCOc1ccc2[nH]c(C(=O)N3CC(CCl)c4c3cc(OCc3ccccc3)c3ncccc43)cc2c1 (configuration not stated)
41 | 250 to 251 °C | Cc1cc(-c2ccc(Cl)cc2)nc2c(C(=O)Nc3cccc(S(C)(=O)=O)c3)cnn12
42 | 298 °C | CCOC(=O)c1cn(-c2c[nH]nn2)c2cc(F)c(F)cc2c1=O
43 | 147 to 148 °C | COc1ccc(Cn2c(C(=O)O)c(-c3ccc4c(c3)OCO4)c3cc(OCc4ccccc4)ccc32)c(OCC(=O)O)c1
44 | 57 to 60 °C | O=C(O)[C@H](Cc1c[nH]c2ccccc12)NS(=O)(=O)c1ccc(F)cc1
45 | 122 to 125 °C | CSc1nc(-c2cc(N)ccc2C)c2c(n1)N(c1c(F)cccc1F)C(=O)NC2
46 | 86 to 87 °C | CCOc1cc(CCl)cc(OCc2nc(-c3ccccc3)oc2C)c1
47 | 160 to 162 °C | Cc1oc(-c2ccco2)nc1CCOc1ccc(CC2SC(=O)NC2=O)cn1 (configuration not stated)
48 | 208 to 210 °C | CCCCc1nn(-c2cc(N)ccc2Cl)c(=O)n1Cc1ccc(-c2ccccc2S(=O)(=O)NC(=O)OC(C)(C)C)cc1F

The next lines start with the compound.

Row | SMILES | melting point
49 | CCOC(=O)C1=Cc2cccc(/C=C/C(=O)O)c2OCC1 | 166 to 168 °C
50 | CCCCCCCCCCCCOC(=O)NCCC(=O)NC(Cc1c[nH]cn1)C(=O)O (configuration not stated) | 168 to 172 °C
51 | CC1(C)CCCC(C)(C)N1CCOC(=O)C(Cc1ccccc1)(Cc1ccccc1)C(=O)OCCN1C(C)(C)CCCC1(C)C | 77 to 78 °C
52 | N#Cc1cccc(CCN2CCN(Cc3ccc(Cl)nc3)C2=N[N+](=O)[O-])c1 | 204 to 206 °C
53 | CC(C)NCC(O)COc1ccc(OCCOCC2CCC2)cc1 (configuration not stated) | 56 °C
54 | CC1(C)CC2(CC(C)(C)N1c1nc(Cl)nc(Cl)n1)OCCO2 | 169 to 172 °C
55 | O=C(NCCCCCCCCCCCCNC(=O)c1ccc(OC(F)(F)F)cc1)c1ccc(OC(F)(F)F)cc1 | 158 to 159 °C
56 | CNS(=O)(=O)Cc1ccc2[nH]cc(CCN=CNc3cccnc3)c2c1 | 70 to 71 °C
57 | COC(=O)Nc1cc(C(C)(C)C)[nH]n1 | 177 °C
58 | O=C1OC(C(O)CO)CCN1Cc1ccccc1 (configuration not stated) | 100 to 102 °C
59 | CC(C)C1(C)NC(c2ccccc2C(F)(F)F)=NC1=O (configuration not stated) | 109 to 110 °C
60 | COc1nc(OC)nc(-n2cnc(S(C)(=O)=O)n2)n1 | 170 °C
61 | CCOC(=O)c1ncc2[nH]c3c(C(C)(C)C)cc(C(C)(C)C)cc3c2c1C | 260 to 263 °C
62 | CCOC(=O)/C=C(C)/C(F)=C/C=C(C)/C=C/c1c(C)sc(C)c1C | 73 to 75 °C
63 | CN(C)CCCCCC=C(NC(=O)C1CC1(C)C)C(=O)O (configuration not stated) | 101 to 112 °C
64 | CSc1ccc(N(C(C)C)S(=O)(=O)c2ccc(C)cc2)c([N+](=O)[O-])c1 | 124 to 126 °C
65 | CO[C@@H]1CN(CC2OCCO2)CC[C@@H]1NC(=O)c1cc(Cl)c(N)c2c1OCC2 (relative stereo) | 149 °C
66 | O=S(=O)(c1ccccc1)C1CCCO1 (configuration not stated) | 55.9 to 56.8 °C
67 | COc1cc(Nc2c(C#N)cnc3cc(C#CCN4CCN(C)CC4)sc23)c(Cl)cc1Cl | 172 to 173 °C
68 | CN(C)C=CC(=O)c1cccc(OCC(O)CN2CCN(c3ccc(Cl)cc3)CC2)c1 (configuration not stated) | 144 to 145 °C
69 | Cn1c(C(F)(F)F)cc(=O)n(-c2cc(OC(=O)NC3CCCCC3)c(Cl)cc2F)c1=O | 171 to 173 °C
70 | CC1(C)COS(=O)Oc2ccc(OS(C)(=O)=O)cc21 (configuration not stated) | 96 to 98 °C
71 | Cc1ccc(C)c(OCCCC(C)(C)C(=O)Nc2ccc3c(c2)OCO3)c1 | 89 to 90 °C
72 | CC(=O)N1CCc2c(sc(C)c2C(=O)CN2CCC(c3noc4cc(F)ccc34)CC2)C1 | 92 to 94 °C
73 | O=C(O)CCC(=O)c1ccc(OC2CCCCC2)cc1 | 190 to 192 °C

Row | SMILES | melting point
74 | O=C1C(=Cc2ccccc2)N2CCC1C2 (configuration not stated) | 61 to 63 °C
75 | NC(Cc1cc(Cl)ccc1CCP(=O)(O)O)C(=O)O (configuration not stated) | > 160 °C
76 | Cc1nc(NC(=O)NS(=O)(=O)c2cccc3c2nnn3C)nc2c1CCO2 | 234 to 240 °C
77 | CCCCCCCCS(=O)Cc1c(C)c(O)c(C)c(CS(=O)CCCCCCCC)c1C (configuration not stated) | 175 °C
78 | CC1(C)CCC2=C(O1)c1ccccc1C1(OCC(CO)O1)C2=O (configuration not stated) | 44 to 46 °C
79 | CNC(=O)c1nc(Cl)c(Cl)[nH]1 | 240 °C
80 | CC1N=C(c2ccccc2F)c2cc(C#N)ccc2NC1=O (configuration not stated) | 216 °C
81 | CC1(C)CC(=O)CC(=O)C1c1ccccc1 (configuration not stated) | 133 to 135 °C
82 | Nc1nc(C(Br)Br)nc(C(Br)Br)n1 | 171 to 173 °C
83 | CCCCCCCCCCCCCCOc1ccc(CC(=O)Nc2cccc(C(=O)OCC)c2)cc1 | 91 to 94 °C
84 | Cc1nc2c3c(c(C(=O)N(C)C)cc2[nH]1)CCC1(Cc2ccccc2C1)N3 | 183 °C
85 | O=C(c1cc2ccccc2[nH]1)N1CCOCC1Cl (configuration not stated) | 254 to 255 °C
86 | CCCCCCCCCCCCCCCC(=O)OCCCN(C)C | 49 to 50 °C
87 | NNC(=O)C(F)(F)c1cccc(Cl)n1 | 165 to 167 °C
88 | CN(C)C(=O)Sc1cc(SC(=O)N(C)C)cc(C(N)=O)c1 | 264 to 265 °C
89 | CCCCCCCCNC(=O)n1cc(F)c(=O)[nH]c1=O | 98 to 100 °C
90 | COc1ccc2c3c(c(=O)oc2c1OC)CN(CC(C)=O)CC3 | 145 to 147 °C
91 | Cc1ccc(S(=O)(=O)NCCCN(CCN(CCCNS(=O)(=O)c2ccc(C)cc2)S(=O)(=O)c2ccc(C)cc2)S(=O)(=O)c2ccc(C)cc2)cc1 | 141 to 142 °C
92 | CCCCCCNC(=O)C#CBr | 64 to 64.3 °C
93 | O=C(CNC1CCCCC1)Nc1ccc([N+](=O)[O-])cc1 | 123 to 125 °C
94 | COc1ccc2c(c1)CCC1=C2CCC2(C)C(O)CCC12 (configuration not stated) | 110 to 112 °C
95 | CCN(CC)c1cccc(CCC(N)=O)c1 | 59 °C
96 | CCOC(=O)C1(C(=O)Nc2ccc(Br)cc2C)CCC1 | 61 to 64 °C
97 | O=C1OC(CCO)c2ccccc21 (configuration not stated) | 122 to 124 °C
